Test results taken from patent US20140148492A1, “BICYCLOSUBSTITUTED PYRAZOLE COMPOUNDS FOR TREATING HAIR LOSS” (Boehringer Ingelheim International GmbH, priority 2012, published 2014).
pKi: −log10 of the molar value.

Target: T1, human CRTH2 receptor (Homo sapiens, UniProt Q9Y5Y4)
T1 construct: host or cells: CHO-K1 (CHO-K1-hCRTH2 cells), membranes prepared in house
T1 sequence (Q9Y5Y4 1-395): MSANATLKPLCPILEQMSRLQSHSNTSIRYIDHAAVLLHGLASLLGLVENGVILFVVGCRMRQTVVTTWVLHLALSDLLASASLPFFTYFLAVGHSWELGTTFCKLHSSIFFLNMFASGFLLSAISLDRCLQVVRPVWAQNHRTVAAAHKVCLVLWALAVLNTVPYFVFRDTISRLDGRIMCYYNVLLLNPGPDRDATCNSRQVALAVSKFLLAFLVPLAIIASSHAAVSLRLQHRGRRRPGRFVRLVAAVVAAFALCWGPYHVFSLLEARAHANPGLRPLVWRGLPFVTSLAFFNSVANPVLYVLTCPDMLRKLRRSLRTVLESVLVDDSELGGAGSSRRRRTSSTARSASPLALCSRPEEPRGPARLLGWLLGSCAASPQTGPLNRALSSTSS
Assay: CRTH2 receptor radioligand binding assay (SPA, [3H]-PGD2)
Settings: displacement of [3H]-PGD2 (1 nM) from CHO-K1-hCRTH2 cell membranes, SPA format, 3 h room temperature
Experimental: The binding of CRTH2 antagonists is determined using membranes prepared from Chinese hamster ovary cells (CHO-K1 cells) transfected with the human CRTH2 receptor (CHO-K1-hCRTH2 cells, Perkin Elmer, Cat No ES-561-C). To produce cell membranes the CHO-K1-hCRTH2 cells are cultured in suspension in CHO SFMII medium supplemented with 400 μg/ml G418. The cells are harvested by centrifugation at 300 g for 10 min at room temperature. The cell pellet is resuspended in Phosphate Buffer Saline (PBS) including a protease inhibitor mix (Complete, Roche) and adjusted to a concentration of 10E7 cells/ml. The CHO-K1-hCRTH2 cells are disrupted by nitrogen […] to obtain the membrane preparation. Cell debris is removed by centrifugation (500 g at 4° C., 30 min) and the supernatant is transferred into fresh tubes followed by a second centrifugation at 40000 g for 1 h at 4° C. to sediment the membranes. The membranes are suspended in SPA incubation buffer (50 mM Tris HCl, 10 mM MgCl2, 150 mM NaCl, 1 mM EDTA, pH 7.4) without bovine serum albumin, homogenized by passing through a single use needle (Terumo, 23G×1″), and stored in aliquots at −80° C.
The CRTH2 receptor binding assay is performed in a scintillation proximity assay (SPA) format with the radioligand [^3H]-PGD2 (Perkin Elmer, NET616000MC). CHO-K1-hCRTH2 cell membranes are again homogenized by passing through a single use needle (Terumo, 23G×1″) and diluted in SPA incubation buffer in suitable concentrations (0.5-10 μg protein/well). The SPA assay is set up in 96 well microtiter plates (Perkin Elmer, CatNo. 6005040) in SPA incubation buffer with a final volume of 200 μl per well and final concentration of 50 mM Tris-HCl, 10 mM MgCl2, 150 mM NaCl, 1 mM EDTA pH 7.4, 0.1% bovine serum albumin). The SPA assay mixture contains 60 μl of the membrane suspension, 80 μl of Wheat Germ Agglutinin coated PVT beads (GE Healthcare, RPNQ-0001, 0.3 mg/well), 40 μl of [3H]-PGD2 diluted in SPA buffer to a final concentration of 1 nM (50 000 dpm) and 20 μl of the test compound (dissolved in dimethylsulfoxid). The SPA assay mixture is incubated for 3 h at room temperature. Bound radioactivity is determined with a scintillation counter (Micro Beta Trilux, Wallac).
The binding of [^3H]-PGD2 to CHO-K1-hCRTH2 cell membranes is determined in the absence (total binding, Bo) and presence (non-specific binding, NSB) of unlabelled PGD2 (1 μM, Cayman Chemical, Cat No 12010) or a reference CRTH2 antagonist (10 μM CAY10471, Cayman Chemical, Cat No 10006735).
Determination of the affinity of a test compound is calculated by subtraction of the non-specific binding (NSB) from the total binding (Bo) or the binding in the presence of the test compound (B) at a given compound concentration. […] The Bo-NSB value is set to 0% inhibition.

Cc1nn(Cc2ccc(NC(=O)c3cc4ccccc4o3)cc2)c(C)c1CC(=O)O [Cmpd 26]
pKi: 9.10

Cc1nn(Cc2ccc(NC(=O)c3oc4ccc(F)cc4c3C)cc2F)c(C)c1CC(=O)O [Cmpd 27]
pKi: 9.22

Cc1nn(Cc2ccc(NC(=O)c3oc4ccc(Br)cc4c3C)cc2F)c(C)c1CC(=O)O [Cmpd 45]
pKi: 9.52

CCn1c(C(=O)Nc2ccc(Cn3nc(C)c(CC(=O)O)c3C)c(F)c2)cc2cc(F)ccc21 [Cmpd 32]
pKi: 9.70

CCc1c(C(=O)Nc2ccc(Cn3nc(C)c(CC(=O)O)c3C)cc2)oc2ccc(F)cc12 [Cmpd 48]
pKi: 8.92

Cc1nn(Cc2ccc(NC(=O)c3cc4ccccc4[nH]3)cc2F)c(C)c1CC(=O)O [Cmpd 1]
pKi: 9.10

Cc1nn(Cc2ccc(NC(=O)c3oc4ccc(F)cc4c3C)cc2)c(C)c1CC(=O)O [Cmpd 4]
pKi: 9.10
